The text below walks through data of patent publication US11427553B2, “Dihydrooxadiazinones” (Bayer Aktiengesellschaft, priority 2017, dated 2022).

SMILES strings stand for the structures.

In one experiment the test system is NCI-H1734 cells. Description: Assay 1 cell proliferation measurement, NCI-H1734. In kind it is cell-based. The settings on record: Homo sapiens, Lung, read-out: Anti-proliferation IC50 [nM] NCI-H1734.
A further experiment deals with H4 cells. Description: Assay 1 cell proliferation measurement, H4. Type of experiment: cell-based. The settings on record: Homo sapiens; Astrocytoma; read-out: Anti-proliferation IC50 [nM] H4.
In the next experiment the test system is COLO741 cells. Description: Assay 1 cell proliferation measurement, COLO741. In kind it is cell-based. The settings on record: Homo sapiens, COLO-741; Melanoma; read-out: Anti-proliferation IC50 [nM] COLO741.
A further experiment relates to C32 cells. Description: Assay 1 cell proliferation measurement, C32. In kind it is cell-based. The settings on record: Homo sapiens, Melanoma, read-out: Anti-proliferation IC50 [nM] C32.
The subject of experiment [1] is HEL92.1.7 xenograft (AML). Description: Assay 3 in vivo xenotransplantation model, HEL92.1.7. The settings on record: HEL92.1.7 AML xenograft, mice, 40 mg/kg 2QD p.o.; * P < 0.05 vs control. An excerpt:
(§1) In Vivo Xenotransplantation Models
(§2) The anti-tumor activities of Compounds of examples 135 and 146 were examined in murine xenotransplantation models of human cancer. For this purpose, mice were implanted subcutaneously with tumor cells. At a mean tumor size of 20-40 mm^2 animals were randomized into treatment and control groups (at least n=10 animals/group) and treatment started with vehicle only or respective Compound (formulation: 90% PEG400/10% Ethanol; application route: per os (“p.o.”), orally). The oral application volume was 10 ml/kg. In the case of twice daily treatments, the time interval between two applications per day was 6-7 h. The tumor size and the body weight were determined at least weekly. The tumor area was detected by means of an electronic caliper [length (mm)×width (mm)]. The experiment was ended when the study reached the pre-determined ethical endpoint based on German and European animal welfare regulations. In vivo anti-tumor efficacy is presented as T/C ratio at study end (Treatment/Control; mean tumor weight of treatment group/mean tumor weight of control group) in Table 8. A compound having a T/C below 0.5 is defined as active (i.e., effective). Statistical analysis was assessed using SigmaStat software. A one-way analysis of variance was performed and differences to the control were compared by a pair-wise comparison procedure (Dunn's method).

The next experiment concerns DU145 cells. Description: Assay 2 cell proliferation measurement, DU145. In kind it is cell-based. The settings on record: Homo sapiens, DU-145, Prostate NS, read-out: Anti-proliferation IC50 [nM] DU145. The protocol: (§3) Cell Proliferation Measurement
(§4) The antiproliferative activity of the compounds of the general formula (I) was examined in vitro in human cancer cells. For this purpose, 500 cells, including HeLa cells, A2058 cells, DU145 cells, HMCB cells, IGR37 cells, NCIH1734 cells, OSRC2 cells, or 750 cells, including CAL51 cells, COL0741 cells, DBTRG05MG cells, DKMG cells, G292CLONEA141B1 cells, GB1 cells, HEL cells, HEL9217 cells, JHUEM1 cells, L3.3 cells, LI7 cells, TE4 cells, or 1000 cells, including 8505C cells, HUT78 cells, NCIH1563 cells, NCIH2122 cells, NCIH2172 cells, RVH421 cells, SKMEL3 cells, or 1500 cells, including C32 cells, HS578T cells, JHOM1 cells, NCIH196 cells, OVKATE cells, were plated in 384-well plates with appropriate growth medium and incubated at 37° C. overnight. […] After 72 h, the cells were treated with 20 μl/well of 50% CTG solution in PBS (Promega Cell Titer Glo (catalogue #G755B and G756B)) and incubated at room temperature for 10 min, and luminescence was measured by means of a VICTOR V (Perkin Elmer), in order to determine cell viability at the end of treatment. The percentage effect on cell growth and the IC50 derived therefrom were determined for each test substance using the values from untreated wells (=percent viability). The IC50 values were calculated using a 4-parameter fit.

The test system of the next experiment is JHOM1 cells. Description: Assay 2 cell proliferation measurement, JHOM1. Type of experiment: cell-based. The settings on record: Homo sapiens, Ovary adenocarcinoma, read-out: Anti-proliferation IC50 [nM] JHOM1. On the procedure:
as §3, §4

The test system of a further experiment is CAL51 cells. Description: Assay 2 cell proliferation measurement, CAL51. The settings on record: Homo sapiens, CAL-51, Breast NS, read-out: Anti-proliferation IC50 [nM] CAL51. In kind it is cell-based. On the procedure:
as §3, §4

The test system of experiment [2] is A2058 xenograft (Melanoma). Description: Assay 3 in vivo xenotransplantation model, A2058. The settings on record: mice, 10 mg/kg 2QD p.o., * P < 0.05 vs control.
From the text: as §1, §2

A further experiment has as its system NCIH2122 cells. Description: Assay 2 cell proliferation measurement, NCIH2122. The settings on record: Homo sapiens, NCI-H2122, Lung adenocarcinoma, read-out: Anti-proliferation IC50 [nM] NCIH2122. In kind it is cell-based. On the procedure: as §3, §4
Experiment [3] has as its system HeLa xenograft (Cervical cancer). Description: Assay 3 in vivo xenotransplantation model, HeLa. The settings on record: mice, 5 mg/kg 2QD p.o., * P < 0.05 vs control.
From the text: as §1, §2

Regarding `O=C1NN=C(c2ccc(-c3ccc(F)cc3)c(C(F)(F)F)c2)CO1` [Example 3, 5-[4′-Fluoro-2-(trifluoromethyl)biphenyl-4-yl]-3,6-dihydro-2H-1,3,4-oxadiazin-2-one], the IC50 with NCI-H1734 cells amounted to 13 nM; in the experiment on H4 cells, 25 nM.
Regarding `C[C@@H]1OC(=O)NN=C1c1ccc(-c2ccc(F)cc2)c(C(F)(F)F)c1` [Example 135, (6S)-5-[4′-Fluoro-2-(trifluoromethyl)biphenyl-4-yl]-6-methyl-3,6-dihydro-2H-1,3,4-oxadiazin-2-one], the IC50 was found to be 1 nM in the experiment with COLO741 cells and 15 nM with C32 cells.
In the case of `O=C1NN=C(c2ccc(-c3cnn(C(F)F)c3)c(C(F)(F)F)c2)CO1` [Example 146, 5-{4-[1-(Difluoromethyl)-1H-pyrazol-4-yl]-3-(trifluoromethyl)phenyl}-3,6-dihydro-2H-1,3,4-oxadiazin-2-one], the “T/C (mean final tumor weight treatment / control)” value in experiment [1] is 0.08*; in [2], 0.23*; in [3], 0.08*. Besides, the IC50 came out at 14 nM in the experiment with DU145 cells, 8 nM in the experiment on JHOM1 cells, 37 nM in the experiment with CAL51 cells and 3 nM in the experiment with NCIH2122 cells.
